Here are results for 9 compounds from PubChem BioAssay (NCI).

Common to all, as to assay: growth of human tumour cells (NCI), 48 h
Test [1] deals with LXFL 529 NSCLC.
In test [2] the test system is RPMI-8226 leukemia.
For test [3], the system named is RXF 393 renal.
In test [4] the test system is 786-0 renal.
Test [5] relates to CAKI-1 renal.
For test [6], the system named is OVCAR-5 ovarian.
The subject of test [7] is HOP-18 NSCLC.
Test [8] relates to DMS 114 small cell lung.
Test [9] has as its system SK-OV-3 ovarian.
For test [10], the system named is BT-549 breast.

Molecules are shown by their SMILES.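 Growth conditions: 96-well plates. Treatment: test compound, 48 hours, 5 concentrations. Analysis: linear interpolation between bracketing concentrations; unreached endpoints set to highest concentration. The concentration for full growth arrest is given as TGI.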

`COC(=O)C(Cc1nc2ccccc2[nH]c1=O)C(=O)C(=O)Nc1ccc([N+](=O)[O-])cc1[N+](=O)[O-]` (configuration not stated): the TGI in test [1] is 25.5 µM; in [2], 85.1 µM; in test [3], 36.8 µM; in test [4], 32 µM; in test [5], greater than 100 µM; in [6], 51 µM. The TGI in test [7] amounted to 32.1 µM; in test [8], 35 µM; in test [9], 64.6 µM.
With `CN(C)c1nc(=Nc2cccc(Cl)c2)ss1`, the TGI in [1] was 21.7 µM; in test [2], 17.5 µM; in test [3] it was 31.7 µM; in [4] it was 25.6 µM; in test [5] it was 33.4 µM; in test [6], 74.6 µM. For the same compound, the TGI was greater than 100 µM in test [7], 25.8 µM in test [8] and greater than 100 µM in test [9].
Regarding `CN1C(=O)C(=O)c2cc3c(c4c2c1cc1ccccc14)OCO3`, the TGI is greater than 100 µM in test [1]; greater than 100 µM in test [2]; 96.8 µM in test [3]; greater than 100 µM in [4]; greater than 100 µM in [5]; greater than 100 µM in [6]. In addition, the TGI in test [7], in test [8] and in test [9] was greater than 100 µM in each case.
As for `C/C=C/CC(C)[C@@H](O)[C@H](NC)C(=O)O` (some centres not stated), the TGI in test [1], in [2], in test [3], in [4], in [5] and in [6] was greater than 100 µM each time. Also, the TGI in [7], in [8] and in test [9] was greater than 100 µM throughout.
Regarding `O=C1C=CC(=O)c2cc(Sc3ccccc3)c(=O)ccc21`, the TGI is 20.3 µM in test [1]; 40 µM in [10]; 14.9 µM in [2]; 25 µM in [3]; 31.9 µM in [4]; 36.3 µM in test [6]. Also, the TGI is 31.8 µM in [7], 38.5 µM in test [8] and 54.9 µM in test [9].
As to `CC[N+]1(C)CCC(O)(c2ccc(OC)cc2)C(C(=O)c2ccc(OC)cc2)C1` (configuration not stated), the TGI in test [1] was 9.76 µM; in test [10], 32.3 µM; in test [2] it was 5.92 µM; in [3], 23.9 µM; in [4], 9.05 µM; in test [5], 11 µM. Also, the TGI in test [6] turned out to be 35.3 µM; in test [7], 32.6 µM; in test [8], 45.9 µM; in test [9] it was 33.7 µM.
With `CC(=O)OC1CC2C(C)(C)C(=O)C=C[C@]2(C)C2CCC3(C)C(=CC(=O)C3c3ccoc3)[C@]12C` (some centres not stated), the TGI in test [1] is 74.2 µM; in [2], 36.1 µM; in test [3] it was 10.1 µM; in [4], 31.1 µM; in test [5] it was greater than 100 µM; in [6] it was 37.8 µM. Besides, the TGI in test [7] was determined as 33.8 µM; in test [8], 27.6 µM; in test [9] it was 35.6 µM.
For `Cc1cc(Cl)ccc1NC(=O)C(=O)C(C(=O)c1ccc2ccccc2c1)C1OC(=O)c2ccccc21` (configuration not stated), the TGI worked out at 19 µM in test [1]; 35.5 µM in [2]; 9.53 µM in test [3]; 22.1 µM in [4]; 35.5 µM in test [5]; 48.4 µM in test [6]. For the same compound, the TGI turned out to be 18.1 µM in test [7], 23.7 µM in test [8] and 49.1 µM in test [9].
Take `Cc1cc(N(CCC#N)S(C)(=O)=O)ccc1C=Nc1ccc(C(=O)NN2C(=O)/C(=C/c3ccc(N(CCC#N)CCC#N)cc3C)N=C2c2cc([N+](=O)[O-])ccc2Cl)cc1`: the TGI in test [1], in test [2], in test [3], in test [4], in test [5] and in test [6] was greater than 100 µM each time. For the same compound, the TGI in test [7], in test [8] and in test [9] was greater than 100 µM throughout.
